Values joined by “and” are separate entries in the source; they are usually repeats but may differ in a detail not shown here. Equal entries are not always repeated. Where two headings read alike, the source gives them in different places.
Tests used:
[1] = Pharmacokinetic profile of IUdR (100 mg/kg) with and without Tipiracil in rats following single oral administration; assay type: in vivo, male Sprague-Dawley rats
Method: The purpose of this study was to determine the pharmacokinetics parameters of IUdR in male Sprague-Dawley rats following single oral (PO) administration the IUdR (i.e., Compound A) and Tipiracil (i.e., Compound B).
A control formulation was prepared where Compound A was dissolved in 5% DMSO+95% PBS to yield a final concentration of 10 mg/mL for oral administration. The prepared formulation was white suspension (pH˜7).
A second formulation was prepared where Compound A and Compound B were dissolved in 5% DMSO+95% PBS to yield a final concentration of 10 mg/mL (Compound A) and 0.79 mg/mL (Compound B) for oral administration. The prepared formulation was white suspension (pH˜7).
Animal Acquisition and Assignment to Study. A total of 8 male experimental Sprague-Dawley Rats were transferred from stock colony, and 6 animals were placed on study.
Dose Administration. The test article was administered via a single oral administration.
Sample Collection and Bioanalysis. Blood samples (approximately 200 μL/sample) were collected via jugular vein at Pre-dose and Post-dose (5 min, 15 min, 30 min, 1 h, 2 h, 4 h, 6 h, 8 h and 24 h). Blood samples were placed into tubes containing K2EDTA and centrifuged conditions at 8000 rpm for 6 minutes at 2-8° C. to separate plasma from the samples. Following centrifugation, the resulting plasma were transferred to clean tubes and stored frozen at −80° C. pending bioanalysis.
Pharmacokinetic Analysis. The PK analysis and interpretation of the results were conducted by Medicilon Preclinical Research (Shanghai) LLC. A non-compartmental module of WinNonlin® Professional was used to calculate parameters. Any BLQs (LLOQ=10.0 ng/mL for Compound A) were omitted when calculate the PK parameters.
Clinical Observations. No abnormal observations were noted.

cells = conditions: as compared to cells without the defective DNA; cited from earlier work
[2] = male, Sprague-Dawley, rat, plasma, oral, 100 mg/kg, PO-100 mg/kg Compound A alone or + 7.9 mg/kg Compound B, group mean, read-out: Plasma Concentration of Compound A, Mean
[3] = male, Sprague-Dawley, rat, plasma, oral, 100 mg/kg, PO-100 mg/kg Compound A alone or + 7.9 mg/kg Compound B, individual animals, LLOQ 10 ng/mL, read-out: Plasma Concentration of Compound A
[4] = single oral dose, Example 1, sub-heading prints PO-20 (Compound A) alone or + 7.9 (Compound B) mg/kg, individual animals

For `O=c1[nH]c(=O)n([C@H]2C[C@H](O)[C@@H](CO)O2)cc1I` [Compound A, 5-iodo-2′-deoxyuridine], the “Plasma Concentration of Compound A” value ([1]; PO-100 mg/kg Compound A alone or + 7.9 mg/kg Compound B, 2 hr, individual animals, LLOQ 10 ng/mL) was 645.17 ng/mL and 943.79 ng/mL, the “Plasma Concentration of Compound A” value ([1]; PO-100 mg/kg Compound A alone or + 7.9 mg/kg Compound B, 4 hr, individual animals, LLOQ 10 ng/mL) was 316.82 ng/mL and 441.37 ng/mL and the “Plasma Concentration of Compound A” value ([1]; PO-100 mg/kg Compound A alone or + 7.9 mg/kg Compound B, 6 hr, individual animals, LLOQ 10 ng/mL) was “BLQ and 56.61 ng/mL”. The “Plasma Concentration of Compound A” value ([1]; PO-100 mg/kg Compound A alone or + 7.9 mg/kg Compound B, 8 hr, individual animals, LLOQ 10 ng/mL) was “BLQ”, the “Plasma Concentration of Compound A” value ([1]; PO-100 mg/kg Compound A alone or + 7.9 mg/kg Compound B, 24 hr, individual animals, LLOQ 10 ng/mL) was “BLQ” and the AUC(0-inf) ([1]; male, Sprague-Dawley, rat, plasma, 100 mg/kg, single oral dose, Example 1, sub-heading prints PO-20 (Compound A) alone or + 7.9 (Compound B) mg/kg, individual animals) was 2630 ng·h/mL. For the same compound, the half-life ([1]; male, Sprague-Dawley, rat, plasma, 100 mg/kg, single oral dose, Example 1, sub-heading prints PO-20 (Compound A) alone or + 7.9 (Compound B) mg/kg, individual animals, read-out: t1/2 of Compound A (converted)) was 0.89 h, the concentration at 0.083 hr [1, 2] was 184 ng/mL and the concentration at 0.083 hr [1, 3] was 191 ng/mL. The concentration at 0.25 hr [1, 2] was 552 ng/mL, the concentration at 0.25 hr [1, 3] was 489 ng/mL and the concentration at 0.5 hr [1, 2] was 689 ng/mL. It also gave a concentration at 0.5 hr [1, 3] of 627 ng/mL, a concentration at 1 hr [1, 2] of 642 ng/mL and a concentration at 1 hr [1, 3] of 556 ng/mL. It also gave a concentration at 2 hr ([1]; male, Sprague-Dawley, rat, plasma, oral, 100 mg/kg, PO-100 mg/kg Compound A alone or + 7.9 mg/kg Compound B, 2 hr, group mean, read-out: Plasma Concentration of Compound A, Mean) of 788 ng/mL, a concentration at 2 hr ([1]; male, Sprague-Dawley, rat, plasma, oral, 100 mg/kg, PO-100 mg/kg Compound A alone or + 7.9 mg/kg Compound B, 2 hr, individual animals, LLOQ 10 ng/mL, read-out: Plasma Concentration of Compound A) of 774 ng/mL and a concentration at 4 hr ([1]; male, Sprague-Dawley, rat, plasma, oral, 100 mg/kg, PO-100 mg/kg Compound A alone or + 7.9 mg/kg Compound B, 4 hr, group mean, read-out: Plasma Concentration of Compound A, Mean) of 345 ng/mL. It also gave a concentration at 4 hr ([1]; male, Sprague-Dawley, rat, plasma, oral, 100 mg/kg, PO-100 mg/kg Compound A alone or + 7.9 mg/kg Compound B, 4 hr, individual animals, LLOQ 10 ng/mL, read-out: Plasma Concentration of Compound A) of 276 ng/mL, a concentration at 6 hr ([1]; male, Sprague-Dawley, rat, plasma, oral, 100 mg/kg, PO-100 mg/kg Compound A alone or + 7.9 mg/kg Compound B, 6 hr, group mean (BLQ omitted), read-out: Plasma Concentration of Compound A, Mean) of 55.3 ng/mL and a concentration at 6 hr ([1]; male, Sprague-Dawley, rat, plasma, oral, 100 mg/kg, PO-100 mg/kg Compound A alone or + 7.9 mg/kg Compound B, 6 hr, individual animals, LLOQ 10 ng/mL, read-out: Plasma Concentration of Compound A) of 54 ng/mL. It also gave a concentration at 8 hr ([1]; male, Sprague-Dawley, rat, plasma, oral, 100 mg/kg, PO-100 mg/kg Compound A alone or + 7.9 mg/kg Compound B, 8 hr, individual animals, LLOQ 10 ng/mL) of 14.1 ng/mL, an AUC(0-t) ([1]; male, Sprague-Dawley, rat, plasma, po, 100 mg/kg, oral administration, Example 1 (100 mg/kg IUdR, ± 7.9 mg/kg Tipiracil), comparison table, mean, read-out: AUC(0-t) of Compound A) of 2720 ng·h/mL and a Cmax ([1]; male, Sprague-Dawley, rat, plasma, po, 100 mg/kg, oral administration, Example 1 (100 mg/kg IUdR, ± 7.9 mg/kg Tipiracil), comparison table, mean, read-out: Cmax of Compound A) of 824 ng/mL. For the same compound, the Tmax ([1]; male, Sprague-Dawley, rat, plasma, po, 100 mg/kg, single oral dose, Example 1, sub-heading prints PO-20 (Compound A) alone or + 7.9 (Compound B) mg/kg, group mean) was 1.5 h, the Cmax ([1]; male, Sprague-Dawley, rat, plasma, po, 100 mg/kg, single oral dose, Example 1, sub-heading prints PO-20 (Compound A) alone or + 7.9 (Compound B) mg/kg, group mean, read-out: Cmax of Compound A, Mean) was 824 ng/mL and the AUC(0-t) ([1]; male, Sprague-Dawley, rat, plasma, po, 100 mg/kg, single oral dose, Example 1, sub-heading prints PO-20 (Compound A) alone or + 7.9 (Compound B) mg/kg, individual animals) was 3320 ng·h/mL. The Cmax ([1]; male, Sprague-Dawley, rat, plasma, po, 100 mg/kg, single oral dose, Example 1, sub-heading prints PO-20 (Compound A) alone or + 7.9 (Compound B) mg/kg, individual animals, read-out: Cmax of Compound A) was 944 ng/mL, the “AUC(0-t) of Compound A” value [1, 4] was 2214.79 ng·h/mL and 2609.22 ng·h/mL and the “Cmax of Compound A” value [1, 4] was 773.62 ng/mL and 755.39 ng/mL. For the same compound, the “Tmax of Compound A” value [1, 4] was 2.00 h and the “increase in susceptibility of cells to the lethal effects of RT” value (cells) was “two-three fold”.

From patent US12357650B2, “Methods and compositions for cancer therapies that include delivery of halogenated thymidines and thymidine phosphorlylase inhibitors in combination with radiation” (Shuttle Pharmaceuticals, Inc., priority 2017, dated 2025)
